Assay results from patent publication US20210085640A1, “ACYLATED CATECHIN POLYPHENOLS AND METHODS OF THEIR USE FOR THE TREATMENT OF CANCER” (Flagship Pioneering Innovations V, Inc., priority 2018, published 2021).

Assays:
Type in all cases: cell-based
T24 bladder cancer cells = assay: Cancer cell survival (CellTiter-Glo), T24; conditions: 72 h
Experimental: (§1) The cells were prepared as follows. Cells were harvested during logarithmic growth, counted, and adjusted to 4.44×10^4 cells/mL with culture media. 90 μL of suspended cells were added to wells of 96-well plates for a final cell count of 4×10^3 cells/well. The plates were incubated overnight at 37 C with 5% CO2 overnight.
(§2) The test compounds were assayed as follows. Compound solutions were mixed at 10× final concentrations in cell media: 1 μM-10 mM (fatty acids) or 100 nM-1 mM (all other compounds). […] of solution was added to each well of cells in triplicate for each concentration. Well plates were incubated for 72 h at 37 C with 5% CO2 and then assayed with CellTiter-Glo by adding 50 μL of CTG solution to each well. Cells were lysed by shaking on an orbital shaker for 5 min. Plates were incubated at room temperature for 20 min and then each well's luminescence was measured. The surviving percentage of cells was determined as:
(§3) Survival %=(LumTest article−LumMedium control)/(LumNone treated−LumMedium control)[…]
Efficacy was assessed at nine concentration levels for each compound and the 50% inhibition concentration (IC50) determined for each compound.

[1] = test system: PC-3 prostate cancer cells; assay: Cancer cell survival (CellTiter-Glo), PC-3; conditions: PC-3 cells, 72 h
Experimental: as §1, §2, §3
(§4) Cytotoxicity was assessed at nine concentration levels for each compound and the 50% inhibition concentration (IC50) determined for each compound.

A549 lung cancer cells = assay: Cancer cell survival (CellTiter-Glo), A549; conditions: 72 h
Experimental: as §1, §2, §3, §4

MCF7 breast cancer cells = assay: Cancer cell survival (CellTiter-Glo), MCF7; conditions: 72 h
Experimental: as §1, §2, §3, §4

AGS stomach cancer cells = assay: Cancer cell survival (CellTiter-Glo), AGS; design: Cell survival at given concentration: unit not given here
Experimental: as §1, §2, §3, §4

[2] = test system: Daudi lymphoma cancer cells; assay: Cancer cell survival (CellTiter-Glo), Daudi; conditions: 72 h
Experimental: as §1, §2, §3
Activity was assessed at nine concentration levels for each compound and the 50% inhibition concentration (IC50) determined for each compound.

[3] = test system: HCT 116 colorectal cancer cells; assay: Cancer cell survival (CellTiter-Glo), HCT 116; conditions: HCT 116 cells, 72 h
Experimental: as §1, §2, §3, §4

A-431 skin cancer cells = assay: Cancer cell survival (CellTiter-Glo), A-431; design: Cell survival at given concentration: unit not given here; conditions: A-431 cells, 72 h
Experimental: as §1, §2, §3, §4

For `CC(O)CCO` (stereo not drawn) [butanediol], the “Cell survival at given concentration” value (T24 bladder cancer cells; 1 μM, Table 3.2) was 1.02, the “Cell survival at given concentration” value (T24 bladder cancer cells; 3 μM, Table 3.2) was 1.03 and the “Cell survival at given concentration” value (T24 bladder cancer cells; 10 μM, Table 3.2) was 0.99. The “Cell survival at given concentration” value (T24 bladder cancer cells; 32 μM, Table 3.2) was 1.00, the “Cell survival at given concentration” value (T24 bladder cancer cells; 100 μM, Table 3.2) was 1.01 and the “Cell survival at given concentration” value (T24 bladder cancer cells; 317 μM) was 1.03. For the same compound, the “Cell survival at given concentration” value (T24 bladder cancer cells; 1 mM) was 1.02, the “Cell survival at given concentration” value (T24 bladder cancer cells; 3 mM) was 1.00 and the “Cell survival at given concentration” value (T24 bladder cancer cells; 10 mM) was 1.00. For the same compound, the “Cell survival at given concentration” value ([1]; 1 μM, Table 8.2) was 1.00, the “Cell survival at given concentration” value ([1]; 3 μM, Table 8.2) was 0.99 and the “Cell survival at given concentration” value ([1]; 10 μM, Table 8.2) was 1.03. For the same compound, the “Cell survival at given concentration” value ([1]; 32 μM, Table 8.2) was 1.02, the “Cell survival at given concentration” value ([1]; 100 μM, Table 8.2) was 1.00 and the “Cell survival at given concentration” value ([1]; 317 μM) was 1.02. The “Cell survival at given concentration” value ([1]; 1 mM) was 0.97, the “Cell survival at given concentration” value ([1]; 3 mM) was 0.98 and the “Cell survival at given concentration” value ([1]; 10 mM) was 0.96. For the same compound, the “Cell survival at given concentration” value (A549 lung cancer cells; 1 μM, Table 7.2) was 0.95, the “Cell survival at given concentration” value (A549 lung cancer cells; 3 μM, Table 7.2) was 0.97 and the “Cell survival at given concentration” value (A549 lung cancer cells; 10 μM, Table 7.2) was 1.03. For the same compound, the “Cell survival at given concentration” value (A549 lung cancer cells; 32 μM, Table 7.2) was 1.01, the “Cell survival at given concentration” value (A549 lung cancer cells; 100 μM, Table 7.2) was 1.00 and the “Cell survival at given concentration” value (A549 lung cancer cells; 317 μM) was 1.02. The “Cell survival at given concentration” value (A549 lung cancer cells; 1 mM) was 1.01, the “Cell survival at given concentration” value (A549 lung cancer cells; 3 mM) was 0.97 and the “Cell survival at given concentration” value (A549 lung cancer cells; 10 mM) was 0.98. The “Cell survival at given concentration” value (MCF7 breast cancer cells; 1 μM, Table 5.2) was 1.00, the “Cell survival at given concentration” value (MCF7 breast cancer cells; 3 μM, Table 5.2) was 0.99 and the “Cell survival at given concentration” value (MCF7 breast cancer cells; 10 μM, Table 5.2) was 0.98. The “Cell survival at given concentration” value (MCF7 breast cancer cells; 32 μM, Table 5.2) was 1.02, the “Cell survival at given concentration” value (MCF7 breast cancer cells; 100 μM, Table 5.2) was 1.03 and the “Cell survival at given concentration” value (MCF7 breast cancer cells; 317 μM) was 1.01. The “Cell survival at given concentration” value (MCF7 breast cancer cells; 1 mM) was 1.00, the “Cell survival at given concentration” value (MCF7 breast cancer cells; 3 mM) was 0.98 and the “Cell survival at given concentration” value (MCF7 breast cancer cells; 10 mM) was 0.96. The “Cell survival at given concentration” value (AGS stomach cancer cells; 1 μM, Table 10.2) was 1.01, the “Cell survival at given concentration” value (AGS stomach cancer cells; 3 μM, Table 10.2) was 1.02 and the “Cell survival at given concentration” value (AGS stomach cancer cells; 10 μM, Table 10.2) was 1.03. The “Cell survival at given concentration” value (AGS stomach cancer cells; 32 μM, Table 10.2) was 1.05, the “Cell survival at given concentration” value (AGS stomach cancer cells; 100 μM, Table 10.2) was 1.04 and the “Cell survival at given concentration” value (AGS stomach cancer cells; 317 μM) was 1.02. The “Cell survival at given concentration” value (AGS stomach cancer cells; 1 mM) was 1.06, the “Cell survival at given concentration” value (AGS stomach cancer cells; 3 mM) was 1.02 and the “Cell survival at given concentration” value (AGS stomach cancer cells; 10 mM) was 0.98. For the same compound, the “Cell survival at given concentration” value ([2]; 1 μM, Table 4.2) was 0.98, the “Cell survival at given concentration” value ([2]; 3 μM, Table 4.2) was 0.97 and the “Cell survival at given concentration” value ([2]; 10 μM, Table 4.2) was 0.97. The “Cell survival at given concentration” value ([2]; 32 μM, Table 4.2) was 0.98, the “Cell survival at given concentration” value ([2]; 100 μM, Table 4.2) was 1.00 and the “Cell survival at given concentration” value ([2]; 317 μM) was 1.01. For the same compound, the “Cell survival at given concentration” value ([2]; 1 mM) was 1.00, the “Cell survival at given concentration” value ([2]; 3 mM) was 1.00 and the “Cell survival at given concentration” value ([2]; 10 mM) was 1.00. The “Cell survival at given concentration” value ([3]; 1 μM, Table 6.2) was 0.98, the “Cell survival at given concentration” value ([3]; 3 μM, Table 6.2) was 0.96 and the “Cell survival at given concentration” value ([3]; 10 μM, Table 6.2) was 0.98. The “Cell survival at given concentration” value ([3]; 32 μM, Table 6.2) was 0.97, the “Cell survival at given concentration” value ([3]; 100 μM, Table 6.2) was 1.00 and the “Cell survival at given concentration” value ([3]; 317 μM) was 1.02. The “Cell survival at given concentration” value ([3]; 1 mM) was 1.01, the “Cell survival at given concentration” value ([3]; 3 mM) was 0.99 and the “Cell survival at given concentration” value ([3]; 10 mM) was 0.95. The “Cell survival at given concentration” value (A-431 skin cancer cells; 1 μM, Table 9.2) was 1.02, the “Cell survival at given concentration” value (A-431 skin cancer cells; 3 μM, Table 9.2) was 1.03 and the “Cell survival at given concentration” value (A-431 skin cancer cells; 10 μM, Table 9.2) was 1.04. For the same compound, the “Cell survival at given concentration” value (A-431 skin cancer cells; 32 μM, Table 9.2) was 1.04, the “Cell survival at given concentration” value (A-431 skin cancer cells; 100 μM, Table 9.2) was 1.03 and the “Cell survival at given concentration” value (A-431 skin cancer cells; 317 μM) was 1.04. For the same compound, the “Cell survival at given concentration” value (A-431 skin cancer cells; 1 mM) was 1.02, the “Cell survival at given concentration” value (A-431 skin cancer cells; 3 mM) was 1.02 and the “Cell survival at given concentration” value (A-431 skin cancer cells; 10 mM) was 1.01.
